Experimental data published in US20260224538A1 (Purdue Research Foundation, priority 2023, published 2026).

Columns and labels:
tau isoform 2N4R [1] = molecular target: T1, tau isoform 2N4R (Homo sapiens, UniProt P10636); experiment: ThT kinetics of tau isoform 2N4R fibril formation; format: biochemical
T1 construct: made in house; host or cells: E. coli BL21(DE3)
Protocol: (§1) The bacterial expression plasmid consisting of the vector pRK172 carrying a cDNA encoding the human Tau 2N4R isoform was obtained from Dr. David Eliezer (Weill Cornell Medicine, New York, NJ). For protein expression, E. coli BL21(DE3) cells were transformed with the plasmid and grown in LB media supplemented with ampicillin (100 μg/mL). Protein over-expression was induced by the addition of 1 mM IPTG for 4 hours at 37° C., and cells were pelleted by centrifugation at 6,000 g for 15 minutes at 4° C. The cells were resuspended in lysis buffer (20 mM MES, 400 mM NaCl, 0.2 mM MgCl2, 1 mM EGTA, protease inhibitor cocktail (P8340, Sigma Aldrich), 0.25 mg/mL lysozyme, and 1 μg/mL DNase 1, pH 6.8) and lysed by a French press cell disruptor at 4° C., after which the lysate was boiled for 20 minutes. Denatured proteins were pelleted by centrifugation at 30,000 g for 30 minutes at 4° C., and the supernatant was dialyzed overnight against cation exchange buffer (20 mM MES, 50 mM NaCl, 1 mM MgCl2, 1 mM EGTA, 2 mM DTT, 0.1 mM PMSF, pH 6.8). The dialysate was loaded onto a HiPrep SP HP column, and proteins were eluted with a linear gradient ranging from 50 mM to 1 M NaCl. Fractions containing tau isoform 2N4R were pooled, and the resulting protein solution was dialyzed against PBS (pH 7.4) and stored at −80° C.
Compounds with the highest anti-fibrillary activity were tested at 3.125, 6.25, 12.5, 25, 50, and 100 μM to obtain dose-response curves with prepared α-syn and 2N4R tau at 6.25 μM and 6 μM, respectively. Compounds were tested with α-syn using a previously published procedure. Concerning the tau (isoform 2N4R) kinetics of fibril formation, measurements of ThT fluorescence were performed with a solution of the protein diluted to a final concentration of 6 μM in PBS (pH 7.4) supplemented with 1.5 μM heparin, 20 μM ThT, 2.5 mM DTT, and 100 μM compound. Aliquots of the diluted protein solution (100 μL each) were pipetted into the wells of a 96-well plate, and a Teflon ball was added to each well. The plate was incubated at 37° C. with constant shaking at 1,000 rpm in a Tecan Spark plate reader. ThT fluorescence was measured every 15 minutes with excitation and emission wavelengths of 440 nm and 480 nm, and the data were plotted using GraphPad Prism.

[2] = system: M17D neuroblastoma cells that express inclusion-prone αS-3K::YFP; experiment: α-Syn inclusion-forming neuroblastoma cell experiment; format: cell-based; details: t=96 hrs
Protocol: α-Syn (or αS) inclusion-forming neuroblastoma cell experiment. Dox-inducible neuroblastoma cells M17D-TR/αS-3K::YFP have been used previously. 96-well plates were used with a cellular density of 30,000 cells per well. Compounds were added […], and αS-3K::YFP transgene expression was induced […]. Induction was done by adding 1 μg per mL (final concentration) dox to culture media. Cells were incubated in the Incucyte Zoom 2000 platform (Essen Biosciences), and images (green, bright field) were taken continuously. Endpoint analysis of inclusion formation or growth was performed 48 hours after induction (96 hours after plating). The Incucyte processing definition ‘Inclusions’ was created as follows: Parameters, Fixed Threshold, Threshold (GCU) 50; Edge Split On, Edge Sensitivity 100; Cleanup, Hole Fill (μm^2): 10, Adjust Size (pixels): 0; Filters, Area (μm^2): max 50, Mean Intensity: min 60, Integrated Intensity: min 2000. Cell confluence was measured by the processing definition ‘Cells’: Parameters, Segmentation Adjustment 0.7; Cleanup, all parameters set to 0; Filters, Area (μm^2): min 345.00. As described previously for the evaluation of protein expression by SDS-PAGE and Western Blotting in the LiCor system, αS-specific monoclonal antibody 4B12 (Thermofisher, Waltham, MA; 1:1000) and a polyclonal antibody to GAPDH (Sigma-Aldrich, St. Louis, MO, G9545; 1:5000) were used.

tau isoform 2N4R [3] = molecular target: T1, tau isoform 2N4R; experiment: TEM of tau isoform 2N4R fibrils; format: biochemical; details: compound 100 μM, tau 10 μM, molar ratio 1:10
Protocol: Transmission electron microscopy (TEM). After performing analysis with ThT fluorescence assay, TEM was utilized to detect fibril formation. A volume of 10 μL was applied to a 400-mesh Formvar-carbon-coated copper grid (Electron Microscopy Sciences, Hatfield, PA). The grids were incubated for 1 minute and washed three times with distilled water. They were carefully air-dried and incubated for 1 minute in a fresh solution of 1% uranyl acetate. Samples were air-dried and observed using a transmission microscope. Visualization of the grids was performed with TEM (JEOL 1400 Flash, Japan). Acquisition of pictures was performed with settings of accelerating voltage of 100 kV and magnification of 25 k and/or 40 k.

α-syn = molecular target: T2, α-syn (Homo sapiens, UniProt P37840); experiment: Photo-induced cross-linking of unmodified proteins (PICUP), α-syn oligomerization; format: biochemical; details: for α-syn oligomer formation (PICUP): compound 50 μM, molar ratio 1:5 (protein:compound)
T2 construct: purchased rPeptide
Protocol: (§2) Photo-induced Cross-linking of Unmodified Proteins (PICUP) Assay. To induce oligomerization by cross-linking, α-syn (from Rpeptide, LLC) and tau isoform 2N4R were diluted in 10 mM phosphate buffer (pH 7.4) to reach a final concentration of 10 μM. Different compounds were added to the protein solution at a final concentration of 50 μM, resulting in a molar ratio of 1:5. To confirm the gradual effect of the compounds on the inhibition of α-syn oligomerization, the compounds were tested at final concentrations of 3.125, 6.25, 12.5, 25, and 50 μM. The controls consisted of samples without light exposition, without Ru(bpy) or ammonium persulfate, and without compound (i.e., 0.125% DMSO). The cross-linking reaction was initiated by the addition of 2 μL of Ru(bpy) (300 μM final concentration) and 2 μL ammonium persulfate (6 mM final concentration). Samples were irradiated immediately. Light exposure was of a one-second duration for α-syn and a three-second duration for tau isoform 2N4R, with a 53 W (120 V) incandescent lamp installed in a homemade dark-box. Each tube contained a final volume of 20 μL. After irradiation, 8.3 μL of Laemmli loading buffer containing 15% β-mercaptoethanol were immediately added to the solution, followed by incubation at 95° C. for 10 minutes. The cross-linked samples were separated on a 16% SDS-PAGE gel and visualized by Coomassie blue staining.

tau isoform 2N4R [4] = molecular target: T1, tau isoform 2N4R; experiment: PICUP, tau isoform 2N4R oligomerization; format: biochemical
Protocol: as §1, §2

T1 sequence (P10636 1-441 isoform P10636-8): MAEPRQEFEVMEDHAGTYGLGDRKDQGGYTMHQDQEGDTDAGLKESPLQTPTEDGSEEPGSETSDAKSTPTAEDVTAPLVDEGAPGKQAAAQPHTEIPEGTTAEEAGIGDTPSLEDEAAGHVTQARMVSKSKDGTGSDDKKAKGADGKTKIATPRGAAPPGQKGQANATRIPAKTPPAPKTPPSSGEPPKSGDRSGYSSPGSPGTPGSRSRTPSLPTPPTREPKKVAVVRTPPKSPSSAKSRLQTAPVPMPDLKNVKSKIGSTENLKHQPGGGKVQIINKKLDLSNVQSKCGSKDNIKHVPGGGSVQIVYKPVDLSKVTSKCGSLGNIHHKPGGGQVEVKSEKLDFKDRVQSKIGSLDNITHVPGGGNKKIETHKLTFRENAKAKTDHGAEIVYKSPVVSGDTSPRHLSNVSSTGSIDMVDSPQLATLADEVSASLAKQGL

tau isoform 2N4R fibrillization (ThT), dose response (tau isoform 2N4R [1]; 3.125-100 μM, at 15 hours): protein fibrillization was reduced
lag time of tau isoform 2N4R fibril formation (tau isoform 2N4R [1]; tau 6 μM, compound 100 μM): delayed the lag time
α-syn oligomer formation (PICUP) (α-syn; listed as nitro-1,2-benzothiazol-3-amine): reduced the oligomer formation
SMILES: Nc1nsc2ccc([N+](=O)[O-])cc12 [A, 5-nitro-1,2-benzothiazol-3-amine]
production of tau isoform 2N4R fibrils (ThT kinetic aggregation curves) (tau isoform 2N4R [1]; tau 6 μM, compound 100 μM): demonstrating the best anti-fibrillary activity
cell confluence ([2]; different concentrations): without any effect on the cell confluence
number of αS-3K::YFP inclusions ([2]; different concentrations, vs 0.1% DMSO): reduced the number of inclusions in a dose-dependent manner
concentration from which the number of inclusions was reduced [2]: 10 µM
tau isoform 2N4R fibrils by TEM (tau isoform 2N4R [3]): clear effect in reducing α-syn and tau fibrillization
α-syn oligomer formation (PICUP), dose dependence (α-syn; 3.125-50 μM): reduced the oligomer formation in a dose-dependent manner
α-syn oligomer formation (PICUP) (α-syn; listed as 5-nitro-1,2-benzothiazol-3-amine): reduced α-syn and tau isoform 2N4R oligomer formation
tau isoform 2N4R oligomer formation (PICUP), dose dependence (tau isoform 2N4R [4]; 3.125-50 μM): reduced the oligomer formation in a dose-dependent manner
tau isoform 2N4R oligomer formation (PICUP) (tau isoform 2N4R [4]; compound 50 μM): reduced α-syn and tau isoform 2N4R oligomer formation
